Patent publication US11844803B2, “Renal dysfunction improving drug comprising optical isomer of 1,4-benzothiazepine-1-oxide derivative” (AETAS PHARMA CO., LTD., priority 2017, dated 2023)
Like-named read-outs stand apart in the source and are kept apart here.

Columns and labels:
[1] = test system: dog renal function; assay: Action on dog renal function, anesthetized beagle, ureter cannulation, cumulative i.v. doses; assay type: in vivo
Method: Method: 5 mg/kg of ketamine hydrochloride (KETALAR FOR INTRAMUSCULAR INJECTION 500 mg, 50 mg/mL, DAIICHI SANKYO COMPANY, LIMITED) was intramuscularly administered to a 10 to 12 kg beagle dog (n=4) as a preanesthetic administration, and then anesthesia was performed by inhale of isoflurane. After intratracheal intubation, isoflurane was inhaled in a range of 1 to 5%, artificial ventilation was carried out, and a tracheal tube was intubated and mounted on a ventilator. The examinations were performed under the ventilation conditions of 10 to 25 mL/kg/stroke and 10 to 20 stroke/min. The lower abdomen was incised, the dog was cannulated in the ureters at the both sides, and urine was continually collected. After the urination became constant, the compound (A) as the first optical isomer component which had been obtained in Example 2 was dissolved in physiological saline, and cumulative doses of 0.1 mg/kg, 0.3 mg/kg, 1 mg/kg, and 3 mg/kg of Compound (A) were administered through the leg veins for 20 minutes each.
A blood sample was obtained before the start of administration of the compound [IV] and every 20 minutes after completion of administration beginning at a time immediately after completion of administration (0 minutes), and changes in urine volume from the ureters at the both sides, Na in urine, K in urine, and a serum creatinine value were examined every 20 minutes.

[2] = test system: ischemia/reperfusion injury in kidneys; assay: Rat kidney ischemia/reperfusion injury model (renal arteries clamped 45 minutes, then reperfusion); assay type: in vivo, SD rats; conditions: 48 hours after administration; hydrochloride, 6 mg/kg in total; n=6; placebo 6.07±0.36; before administration 0.27±0.01
Method: Method: Eleven 8-week-old male SD rats were used and laparotomized under anesthesia, the renal artery of the left kidney, and then after 1 minute, that of the right kidney were clamped using a non-traumatic clip for 45 minutes, and then reperfusion was performed.
The hydrochloride of the first optical isomer component (compound (A)) of the formula [IV] of the present invention was dissolved in physiological saline, and 4 mg/kg (before ischemia) and 2 mg/kg (before and after reperfusion) of the compound (A) (6 mg/kg in total) were administered for 10 minutes before ischemia and before and after reperfusion, respectively. On the other hand, the placebo group was subjected to the same procedure as in the compound (A)—administration group in every way except that only physiological saline was administered instead of physiological saline solution of the hydrochloride of the compound (A). […]
For calculation of a creatinine clearance value, the total urine of during 60 minutes before administration and during 0 to 8, 8 to 24, and 24 to 48 hours after administration were collected in each rat, and the urine volume and the value of creatinine in urine were measured. Further, a blood sample was obtained before administration and after 4, 8, 24, and 48 hours of administration and serum creatinine values were measured over time. […]

[3] = test system: human renal function; assay: Action on human renal function: 8-hour urine volume after i.v. administration, double-blinded; assay type: in vivo, adult human (male); conditions: for total urine volume from 0 to 8 hours after administration: hydrochloride, 6 persons, placebo 459.8 (±184.1)
Method: After an adult was caused to completely urinate before administration of the compound (A), the compound (A) was administered to the adult. The study was performed in a double-blinded manner.
(§1) Method: Three groups including a group with 0 mg/kg of the compound (A) being administered (placebo group: 8 persons), a group with 0.05 mg/kg of the compound (A) being administered (6 persons), and a group with 0.15 mg/kg of the compound (A) being administered (6 persons) were made. The hydrochloride of the compound (A) was dissolved in physiological saline and intravenously administered at a rate of 2.5 mL/min for 20 minutes. The urine volume from a time immediately after administration to a time after 8 hours of administration and the maximum plasma concentration immediately after administration were measured.

[4] = test system: dog with complete atrioventricular block; assay: Torsades de Pointes in dog with complete atrioventricular block; assay type: in vivo; conditions: dose not given
[5] = Maximum plasma concentration immediately after i.v. administration in adult human; assay type: in vivo, adult human (male); conditions: 0.15 mg/kg i.v. for 20 minutes, hydrochloride, 6 persons
Method: as §1

[6] = Stability and solubility properties of the substance; assay type: physicochemical
[7] = test system: dog with complete atrioventricular block; conditions: 1.2 mg/kg body weight; Non-Patent Document 3; cited from earlier work
[8] = Skin irritating property

COc1ccc2c(c1)CN(C(=O)CCN1CCC(Cc3ccccc3)CC1)CC[S+]2[O-] (single isomer, unassigned) [compound (A), 4-[3-(4-benzylpiperidin-1-yl)propionyl]-7-methoxy-2,3,4,5-tetrahydro-1,4-benzothiazepine-1-oxide]
excretion amount of sodium (amount of urinary sodium) vs control ([1]; after 1 mg/kg and 3 mg/kg i.v. (cumulative doses), n=4, FIG. 5): significant increase | excretion amount of potassium (amount of urinary potassium) vs control ([1]; after 1 mg/kg and 3 mg/kg i.v. (cumulative doses), n=4, FIG. 6): significant increase | serum creatinine value vs control ([1]; after 1 mg/kg and 3 mg/kg i.v. (cumulative doses), n=4, FIG. 7): significant decrease | urine volume vs control ([1]; after 1 mg/kg and 3 mg/kg i.v. (cumulative doses, 20 minutes each), n=4, paired t, FIG. 4): significant increase | serum creatinine value [2]: 3.02 ± 0.82 mg/dL | total urine volume from 0 to 8 hours after administration ([3]; 0.05 mg/kg i.v. for 20 minutes): 545.2 (±362.1) mL | increase in urine volume as compared to the placebo group (significance) ([3]; 0.05 mg/kg i.v., 0 to 8 hours): significant (p<0.05) increase in urine volume was not recognized | total urine volume from 0 to 8 hours after administration ([3]; 0.15 mg/kg i.v. for 20 minutes): 914.2 (±431.0) mL | increase in urine volume as compared to the placebo group (significance) ([3]; 0.15 mg/kg i.v., 0 to 8 hours): significant (p<0.05) increase | urine volume relative to that of the placebo group ([3]; 0.15 mg/kg i.v., 0 to 8 hours): approximately two times | occurrence of Torsades de Pointes [4]: does not cause Torsades de Pointes | blood concentration immediately after administration [5]: 349.3 ± 93.7 ng/mL | solubility [6]: water-soluble

COc1ccc2c(c1)CN(C(=O)CCN1CCC(Cc3ccccc3)CC1)CCS2 [JTV519, 4-[3-(4-benzylpiperidin-1-yl)propionyl]-7-methoxy-2,3,4,5-tetrahydro-1,4-benzothiazepine]
occurrence of Torsades de Pointes [7]: Torsades de Pointes that is life-threatening arrhythmia occurs

COc1ccc2c(c1)CN(C(=O)CCN1CCC(Cc3ccccc3)CC1)CC[S+]2[O-] (stereo not drawn) [compound having the above formula [Ia]] [4-[3-(4-benzylpiperidin-1-yl)propionyl]-7-methoxy-2,3,4,5-tetrahydro-1,4-benzothiazepine-1-oxide]
skin irritating property [8]: has a skin irritating property | solubility [6]: easily dissolved in ethanol and dimethyl sulfoxide (DMSO) | stability ([6]; room temperature): stable to oxygen, humidity, acid, and alkali

COc1ccc2c(c1)CN(C(=O)CCN1CCC(Cc3ccccc3)CC1)CC[S+]2[O-] (stereo not drawn) [oxalate of the compound [Ia]] [4-[3-(4-benzylpiperidin-1-yl)propionyl]-7-methoxy-2,3,4,5-tetrahydro-1,4-benzothiazepine-1-oxide]
solubility [6]: soluble in water, ethanol, and dimethyl sulfoxide
